The target in this assay is T1, human FXR (Homo sapiens, UniProt Q96RI1).
T1 construct: expressed in transfected cells
T1 sequence (Q96RI1 262-486 limits assumed): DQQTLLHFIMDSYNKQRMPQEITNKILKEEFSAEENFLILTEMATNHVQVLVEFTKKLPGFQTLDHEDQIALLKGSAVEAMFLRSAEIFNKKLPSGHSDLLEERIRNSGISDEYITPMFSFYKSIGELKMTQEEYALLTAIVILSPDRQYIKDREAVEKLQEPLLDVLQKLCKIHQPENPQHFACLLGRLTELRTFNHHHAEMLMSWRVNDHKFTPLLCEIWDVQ
Description: transient human FXR/Gal4-luciferase reporter assay. Conditions: Gal4-hFXR (ligand binding domain) fusion transiently transfected in HEK293 Gal4-luciferase reporter cells; overnight incubation; response as percentage of 8 μM GW-4064 control. Format: cell-based. On the procedure: A Gal4-hFXR fusion construct reporter system was used as the primary assay to characterize compound activity. A construct including 5 copies of the Gal4 promoter response element upstream of a firefly luciferase reporter cDNA was stably expressed in HEK293 cells. This reporter cell line was maintained in Dulbecco's Modified Eagle's medium (DMEM; Gibco) supplemented with 1% penicillin-streptomycin (P/S) solution, 500 μg/ml Zeocin and 10% charcoal/dextran-treated fetal bovine serum (cs-FBS) at 37° C. in a humidified 5% CO2 atmosphere. Another plasmid was constructed in which the human cytomegalovirus promoter in the pcDNA3.1 vector directs the expression of the cDNA encoding a fusion protein comprised of the DNA binding domain from the Gal4 transcription factor fused to the ligand binding domain from human FXR.
The day prior to transfection, the reporter cells in culture are detached from the plate with trypsin and plated into a T75 flask at a sufficient density to achieve approximately 90% confluence the next morning. The transfection reagents are prepared by separately diluting 25 μg of the pcDNA3.1-Gal4-FXR plasmid into 1.87 mL of Opti-MEM (Thermo-Fisher), and 40 μL of Lipofectamine 2000 (Thermo-Fisher) into 1.87 mL of Opti-MEM, and then adding the diluted DNA solution into the diluted Lipofectamine 2000 solution and incubating at room temperature for 15-20 minutes. The mixture is further diluted with 10 ml of a solution comprised of DMEM, 10% cs-FBS, and 1% P/S immediately prior to transferring to the cells. The maintenance culture media is aspirated from the cells and the final transfection mixture is added before the cells are incubated overnight at 37° C. in a humidified 5% CO2 atmosphere. This protocol can be scaled up, and the transiently transfected cells can be cryopreserved in an assay-ready format.
For compound testing, 100 nL of the compounds (serial dilutions in DMSO) are dispensed with an Echo acoustic dispenser (Labcyte) into the wells of a Corning/Costar clear bottom 384-well white plate. The transfected cells are harvested, counted, and diluted such that 10-25,000 cells in 25 μL are plated into each well of the 384-well compound assay plate. The compound-treated cells are incubated overnight at 37° C. in a humidified 5% CO2 atmosphere. The next morning 25 μL of Steady-Glo (Promega) are added to each well of the plate, the mixture is incubated for 15 min. with shaking, and luminescence is measured on an Envision (Perkin Elmer) plate reader.
(In general: In a reporter assay the amount or activity of a reporter protein is the signal.)
On to `COC(=O)/C=C/c1cccc(N(C(=O)C2CCCCC2)C(C)C23CCC(c4nc(C)no4)(CC2)CC3)c1` (single isomer, unassigned) [Example 46, Methyl (E)-3-(3-(N-(1-(4-(3-methyl-1,2,4-oxadiazol-5-yl)bicyclo[2.2.2]octan-1-yl)ethyl)cyclohexanecarboxamido)phenyl)acrylate], for which the EC50 (as a rule, the concentration that produces a half-maximal response) worked out at 0.302 µM.
The value for `COC(=O)/C=C/c1cccc(N(C(=O)C2CCCCC2)C(C)C23CCC(c4nc(C)no4)(CC2)CC3)c1` (single isomer, unassigned) [Example 47, Methyl (E)-3-(3-(N-(1-(4-(3-methyl-1,2,4-oxadiazol-5-yl)bicyclo[2.2.2]octan-1-yl)ethyl)cyclohexanecarboxamido)phenyl)acrylate] was 0.152 µM; that for `COC(=O)/C=C/c1cccc(N(CC23CCC(c4ccc(N(C)C)cc4)(CC2)CC3)C(=O)C2CCCCC2)c1` [Example 1, Methyl (E)-3-(3-(N-((4-(4-(dimethylamino)phenyl)bicyclo[2.2.2]octan-1-yl)methyl)cyclohexanecarboxamido)phenyl)acrylate] was 0.078 µM; that for `CN(C)c1ccc(C23CCC(CN(C(=O)C4CCCCC4)c4cccc(/C=C/C(=O)O)c4)(CC2)CC3)cc1` [Example 2, (E)-3-(3-(N-((4-(4-(dimethylamino)phenyl)bicyclo[2.2.2]octan-1-yl)methyl)cyclohexanecarboxamido)phenyl)acrylic Acid] was 1.52 µM.
The value for `COC(=O)/C=C/c1cccc(N(CC23CCC(c4ccc(N5CCOCC5)cc4)(CC2)CC3)C(=O)C2CCCCC2)c1` [Example 3, (E)-methyl 3-(3-(N-((4-(4-morpholinophenyl)bicyclo[2.2.2]octan-1-yl)methyl)cyclohexanecarboxamido)phenyl)acrylate] was 0.165 µM; that for `COC(=O)/C=C/c1cccc(N(CC23CCC(c4ccc(N5CCCC5)cc4)(CC2)CC3)C(=O)C2CCCCC2)c1` [Example 4, (E)-methyl 3-(3-(N-((4-(4-(pyrrolidin-1-yl)phenyl)bicyclo[2.2.2]octan-1-yl)methyl)cyclohexanecarboxamido)phenyl)acrylate] was 0.52 µM; that for `COC(=O)/C=C/c1cccc(N(CC23CCC(c4ccc(N(C)C)cc4)(CC2)CC3)C(=O)C2CCOCC2)c1` [Example 6, Methyl (E)-3-(3-(N-((4-(4-(dimethylamino)phenyl)bicyclo[2.2.2]octan-1-yl)methyl)tetrahydro-2H-pyran-4-carboxamido)phenyl)acrylate] was 0.212 µM.
The result for `COC(=O)/C=C/c1cccc(N(CC23CCC(c4ccccc4)(CC2)CC3)C(=O)C2CCCCC2)c1` [Example 7, Methyl (E)-3-(3-(N-((4-phenylbicyclo[2.2.2]octan-1-yl)methyl)cyclohexanecarboxamido)phenyl)acrylate] reads 0.395 µM; that for `COC(=O)/C=C/c1cccc(N(CC23CCC(c4ccc5c(cnn5C)c4)(CC2)OC3)C(=O)C2CCOCC2)c1` [Example 8, (E)-Methyl 3-(3-(N-((1-(1-methyl-1H-indazol-5-yl)-2-oxabicyclo[2.2.2]octan-4-yl)methyl)tetrahydro-2H-pyran-4-carboxamido)phenyl)acrylate], 1.6 µM; that for `COC(=O)/C=C/c1cccc(N(CC23CCC(c4ccc5c(cnn5C)c4)(CC2)OC3)C(=O)C2CCN(C)CC2)c1` [Example 9, (E)-Methyl 3-(3-(1-methyl-N-((1-(1-methyl-1H-indazol-5-yl)-2-oxabicyclo[2.2.2]octan-4-yl)methyl)piperidine-4-carboxamido)phenyl)acrylate], 4.72 µM.
Turning to `COC(=O)/C=C/c1cccc(N(CC23CCC(c4ccc(OC)cc4)(CC2)OC3)C(=O)C2CCCCC2)c1` [Example 10, Methyl (E)-3-(3-(N-((1-(4-methoxyphenyl)-2-oxabicyclo[2.2.2]octan-4-yl)methyl)cyclohexanecarboxamido)phenyl)acrylate], the response was half-maximal at 0.319 µM (EC50).
The value for `COC(=O)C1=Cc2cccc(N(CC34CCC(c5ccc(N6CCOCC6)cc5)(CC3)CC4)C(=O)C3CCCCC3)c2CC1` [Example 11, Methyl 5-(N-((4-(4-morpholinophenyl)bicyclo[2.2.2]octan-1-yl)methyl)cyclohexanecarboxamido)-3,4-dihydronaphthalene-2-carboxylate] was 2.74 µM; that for `COC(=O)C1=Cc2cccc(N(CC34CCC(c5ccc(N(C)C)cc5)(CC3)CC4)C(=O)C3CCCCC3)c2CC1` [Example 12, methyl 5-(N-((4-(4-(dimethylamino)phenyl)bicyclo[2.2.2]octan-1-yl)methyl)cyclohexanecarboxamido)-3,4-dihydronaphthalene-2-carboxylate] was 2.58 µM.
The result for `CCN(CC)c1ccc(C23CCC(CN(C(=O)C4CCCCC4)c4cccc5c4CCC(C(=O)OC)=C5)(CC2)CC3)cc1` [Example 13, methyl 5-(N-((4-(4-(diethylamino)phenyl)bicyclo[2.2.2]octan-1-yl)methyl)cyclohexanecarboxamido)-3,4-dihydronaphthalene-2-carboxylate] reads 0.912 µM.
The value for `COC(=O)/C=C(\C)c1cccc(N(CC23CCC(c4ccc(N5CCOCC5)cc4)(CC2)CC3)C(=O)C2CCCCC2)c1` [Example 14, Methyl (E)-3-(3-(N-((4-(4-morpholinophenyl)bicyclo[2.2.2]octan-1-yl)methyl)cyclohexanecarboxamido)phenyl)but-2-enoate] was 1.15 µM; that for `COC(=O)/C=C/c1cccc(N(CC23CCC(c4ccc(OC)cc4)(CC2)CC3)C(=O)C2CCCCC2)c1` [Example 15, Methyl (E)-3-(3-(N-((4-(4-methoxyphenyl)bicyclo[2.2.2]octan-1-yl)methyl)cyclohexanecarboxamido)phenyl)acrylate] was 0.243 µM.
As for `COC(=O)/C=C(\C)c1cccc(N(CC23CCC(c4ccc(OC)cc4)(CC2)CC3)C(=O)C2CCCCC2)c1` [Example 16, Methyl (E)-3-(3-(N-((4-(4-methoxyphenyl)bicyclo[2.2.2]octan-1-yl)methyl)cyclohexanecarboxamido)phenyl)but-2-enoate], a half-maximal response (EC50) required 0.576 µM.
The result for `COc1ccc(C23CCC(CN(C(=O)C4CCCCC4)c4cccc5c4CCC(C(=O)O)=C5)(CC2)CC3)cc1` [Example 17, 5-(N-((4-(4-methoxyphenyl)bicyclo[2.2.2]octan-1-yl)methyl)cyclohexanecarboxamido)-3,4-dihydronaphthalene-2-carboxylic Acid] reads 2.24 µM; that for `COC(=O)C1=Cc2cccc(N(CC34CCC(c5ccc(OC)cc5)(CC3)CC4)C(=O)C3CCCCC3)c2CC1` [Example 18, Methyl 5-(N-((4-(4-methoxyphenyl)bicyclo[2.2.2]octan-1-yl)methyl)cyclohexanecarboxamido)-3,4-dihydronaphthalene-2-carboxylate], 1.81 µM; that for `COC(=O)/C=C(\C)c1cccc(N(CC23CCC(c4nc(C)no4)(CC2)CC3)C(=O)C2CCCCC2)c1` [Example 19, Methyl (E)-3-(3-(N-((4-(3-methyl-1,2,4-oxadiazol-5-yl)bicyclo[2.2.2]octan-1-yl)methyl)cyclohexanecarboxamido)phenyl)but-2-enoate], 0.551 µM.
The value for `COC(=O)/C=C/c1cccc(N(CC23CCC(c4nc(C)no4)(CC2)CC3)C(=O)C2CCCCC2)c1` [Example 20, Methyl (E)-3-(3-(N-((4-(3-methyl-1,2,4-oxadiazol-5-yl)bicyclo[2.2.2]octan-1-yl)methyl)cyclohexanecarboxamido)phenyl)acrylate] was 0.056 µM.
`COC(=O)/C=C/c1cccc(N(CC23CCC(c4nc(C)no4)(CC2)CC3)C(=O)C2CC2)c1` [Example 21, methyl (E)-3-(3-(N-((4-(3-methyl-1,2,4-oxadiazol-5-yl)bicyclo[2.2.2]octan-1-yl)methyl)cyclopropanecarboxamido)phenyl) acrylate] came in with an EC50 of 2.44 µM. This EC50 is about 44-fold higher than that of the molecule before.
The result for `COC(=O)/C=C/c1cccc(N(CC23CCC(c4nc(C)no4)(CC2)CC3)C(=O)C(C)C)c1` [Example 22, methyl (E)-3-(3-(N-((4-(3-methyl-1,2,4-oxadiazol-5-yl)bicyclo[2.2.2]octan-1-yl)methyl)isobutyramido)phenyl)acrylate] reads 0.849 µM.

Source of the values: patent US12030835B2, “Substituted amide compounds useful as farnesoid X receptor modulators” (BRISTOL-MYERS SQUIBB COMPANY, priority 2019, dated 2024).
